Measurements from paper PMC10301603, “Potent and Selective Benzothiazole-Based Antimitotics with Improved Water Solubility: Design, Synthesis, and Evaluation as Novel Anticancer Agents” (Pharmaceutics, 2023).
Converted amounts (≈) assume the structure as drawn. One block for each molecule: values may come before it.

Experiments:
[1] = Aqueous solubility, shake-flask method; type: physicochemical; details: shaking flask, buffered media at pH 7.0, mean of three
In short: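 Concentration read by UV at maximum absorbance wavelength, interpolated on each compound's own calibration line, mean of three independent runs. Samples were suspensions of 5 mg in 500 µL pH 7.0 buffer, stirred at room temperature for 72 h and filtered before reading.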

HT-29 cells = assay: Cell growth inhibition assay (MTT); type: cell-based, human
In short: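 Following overnight (24 h) attachment, cultures received serial compound concentrations from 10^−10 to 10^−2 M and were incubated 72 h before MTT viability measurement. Where efflux-pump sensitivity was tested, IC50 was redetermined with 10 µM verapamil present.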

HeLa cells = assay: Cell growth inhibition assay (MTT); type: cell-based, human; details: 72 h after drug exposure
In short: (§1)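 24 h attachment at 37 °C/5% CO2 in complete DMEM; compounds 10^−10–10^−2 M, 72 h; MTT; IC50 fit, n=3 × triplicate. MDR sensitivity: same, + verapamil 10 µM final.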

HepG2 cells = assay: Cell growth inhibition assay (MTT); type: cell-based, human
In short: (§2)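 Cells in DMEM with 10% FBS attached for 24 h, then treated 72 h; MTT read-out. Single-point screen at 10 µM, IC50 from 10^−10 to 10^−2 M series in triplicate, three experiments; efflux sensitivity assessed with 10 µM verapamil.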

LNCaP cells = assay: Cell growth inhibition assay (MTT); type: cell-based, human; details: 72 h after drug exposure
In short: as §2

MCF7 cells = assay: Cell growth inhibition assay (MTT); type: cell-based, human; details: for IC50: MTT, 72 h after drug exposure
In short: as §2

PC-3 cells = assay: Cell growth inhibition assay (MTT); type: cell-based, human
In short: as §1

T98G cells = assay: Cell growth inhibition assay (MTT); type: cell-based, human; details: 72 h after drug exposure
In short: as §1

U87MG cells [2] = assay: Cell growth inhibition assay (MTT); type: cell-based, human; details: for IC50: MTT, 72 h after drug exposure
In short: as §2

GL261 cells = assay: Cell growth inhibition assay (MTT); type: cell-based, murine
In short: as §2

U87MG cells [3] = assay: Cell cycle analysis (PI, flow cytometry); type: cell-based, human; details: for combined G2/M plus subG0/G1 populations: over the three time points (24, 48, 72 h)
Experimental: An amount of 8 × 10^4 cells/mL (HeLa, MCF7, or U87 MG cells) were seeded in 6-well plates (2 mL/well) and incubated in complete DMEM medium (see above) at 37 °C and 5% CO2 atmosphere for 24 h. Then, the medium was replaced with fresh complete DMEM in the presence or absence of the selected compounds (8, 9, and 14). The concentration of the compounds was selected according to their IC50 value for the antiproliferative activity in each cell line (see above, Section 2.4.4). […] Untreated cells were used as negative controls. Cells were harvested 24, 48, or 72 h following treatment and fixed in ice-cold ethanol/PBS (7:3) overnight. Cells were then washed twice with PBS, suspended in PBS, and incubated overnight in darkness with 0.2 mg/mL RNase A (Sigma-Aldrich, St. Louis, MO, USA), 50 µg/mL propidium iodide (Sigma-Aldrich, St. Louis, MO, USA), and Triton 10× at room temperature. BD Accuri™ C6 Plus Flow Cytometer (BD Biosciences) was used to analyze samples, and BD Accuri™ C6 Software (version 1.0.264.21) was used for data analysis.

HEK-293 cells = assay: Lactate dehydrogenase (LDH) release assay; type: cell-based, human; details: HEK-293, 72 h; for LDH release: 100 µM
Experimental: CytoTox96® Non-Radioactive Cytotoxicity Assay kit (Promega, Madison, WI, USA) was used to measure the release of lactate dehydrogenase (LDH) by following the previously described method in [46]. […] After treatment, the supernatants were collected, and the intact attached cells were lysed using 0.1% (w/v) Triton X-100 in (0.9%) NaCl solution. Both the LDH released to culture media, as well as the LDH content within the cells, were determined spectrophotometrically at 490 nm on a 96-well plate reader (Infinite 200, Tecan, Salzburg, Austria) by following the manufacturer’s instructions. LDH release was defined by the ratio of LDH released/total LDH present in the cells, with the total LDH being 100%. All the samples were run in quadruplicate.

[4] = 24 h, 8 50 nM, 14 and 9 200 nM (Figure 6 legend; 100 nM in methods)

solubility at 72 h ([1]; pH 7.0 buffer, pH 7, aqueous buffer, thermodynamic from solid): 95 µg/mL (≈ 317 µM)
IC50 (HT-29 cells; Homo sapiens, HT-29, 72 h after drug exposure): 322 nM
IC50 (HeLa cells; Homo sapiens, HeLa): 107 nM
IC50 (HepG2 cells; Homo sapiens, HepG2, 72 h after drug exposure): 83 nM
IC50 (LNCaP cells; Homo sapiens, LNCaP): 93 nM
IC50 (MCF7 cells; Homo sapiens, MCF7): 15 nM
IC50 (PC-3 cells; Homo sapiens, PC-3, 72 h after drug exposure): 195 nM
IC50 (U87MG cells [2]; Homo sapiens, U-87 MG): 37 nM
LDH release (HEK-293 cells): ~30%
SMILES: COc1ccc2nc(N(C=O)Cc3cccnc3)sc2c1 [Compound 14, N-(6-methoxybenzo[d]thiazol-2-yl)-N-(pyridin-3-ylmethyl)formamide]
selectivity index against MCF7 (MCF7 cells; HEK-293 versus MCF7): ~500
IC50 (T98G cells; Homo sapiens, T98G): 75 nM
IC50 (GL261 cells; Mus musculus, GL261, 72 h after drug exposure): 35 nM
combined G2/M plus subG0/G1 populations (U87MG cells [3]): roughly 75%
cytotoxic effect by LDH release (in words) (HEK-293 cells; between 0.1 and 1 µM): No significant cytotoxic effects

Solubility [1]: 102 µg/mL (≈ 298 µM)
IC50 (HT-29 cells; 72 h after drug exposure): 208 nM
IC50 (HeLa cells): 85 nM
IC50 (HepG2 cells; 72 h after drug exposure): 94 nM
IC50 (LNCaP cells): 88 nM
IC50 (MCF7 cells): 34 nM
IC50 (PC-3 cells; 72 h after drug exposure): 161 nM
IC50 (U87MG cells [2]): 9 nM
LDH release (HEK-293 cells): ~30%
SMILES: CCNC(=O)N(Cc1cccnc1)c1nc2ccc(OC)cc2s1 [Compound 8]
IC50 (T98G cells): 52 nM
selectivity index against U87MG (U87MG cells [2]; HEK-293 versus U87MG): ~900
IC50 (GL261 cells; 72 h after drug exposure): 25 nM
G2/M population (U87MG cells [3]; [4]): 39%
SubG0/G1 population (U87MG cells [3]; [4]): 41%
combined G2/M plus subG0/G1 populations (U87MG cells [3]): ~85%
